≈ marks a conversion by molar mass, not a printed value.

The results in this text go back to article PMC6271717, “Chemical Composition, Biological and Cytotoxic Activities of Plant Extracts and Compounds Isolated from Ferula lutea” (Molecules, 2014).

The test system of test [1] is Candida albicans ATCC 90028. The test is described as follows: Anticandida activity, broth microdilution. The class given is cell-based. Particulars: ATCC90028, positive control. (Broth dilution looks for growth in wells or tubes with falling amounts of substance.)
Experimental: (§1) The test microorganisms included the following Gram-positive bacteria: Staphylococcus aureus ATCC 25923, Enterococcus faecalis ATCC 29212; Gram-negative bacteria: Escherichia coli ATCC 25922 and Pseudomonas aeruginosa ATCC 27853 and four Candida yeasts: Candida albicans ATCC 90028, C. glabrata ATCC 90030, C. kreusei ATCC 6258 and C. parapsilosis ATCC 22019).
(§2) The MIC values for the antibacterial and anticandidal screening were determined with the broth dilution method (microdilution using 96-well microplates) following the procedure described by Cintia et al. [35]. Briefly, all samples were prepared at a concentration of 10 mg/mL by dissolution of the extracts in 10% DMSO. The final concentrations of the plant samples tested ranged from 40 to 2 × 10^4 µg/mL. The MIC of each sample was defined as the lowest concentration of oil that inhibited either the bacterial or candidal growth, after incubation at 37 °C for 18 to 24 h. The MBC and the MFC were determined by subculture on blood agar at 37 °C for 18 to 24 h. Thymol and gentamicin or thymol and amphotericin B were used as positive controls against the bacterial or candidal strains, respectively. […] All tests were performed in triplicate.
The test system of test [2] is Candida kreseui ATCC 6258. Description: Anticandida activity, broth microdilution. The class given is cell-based. Particulars: ATCC6258, positive control.
Experimental: as §2
Test [3] has as its system Candida glabrata ATCC 90030. Description: Anticandida activity, broth microdilution. The class given is cell-based. Particulars: Nakaseomyces glabratus, ATCC90030; positive control.
Experimental: as §1, §2
The test system of test [4] is Candida parapsilosis ATCC 22019. Description: Anticandida activity, broth microdilution. The class given is cell-based. Particulars: Lodderomyces parapsilosis, ATCC22019; positive control.
Experimental: as §1, §2
For test [5], the system named is human chronic myelogenous leukaemia cell line K562. The test is described as follows: Cytotoxic activity (MTT assay). Particulars: K562, 72 h. The class given is cell-based. Here is the method:
Cytotoxic activity of extracts against the human chronic myelogenous leukaemia cell line K562 was estimated by the 3-(4,5-dimethylthiazol-2-yl)-2,5-diphenyltetrazolium bromide (MTT) assay of Khlifi et al.. The cells were grown in RPMI- 1640 medium supplemented with 10% faetal calf serum (Gibco, Gaithersburg, MD, USA), air and 5% CO2. The resulting blue formazan product can be measured spectrophotometrically. The MTT colorimetric assay was performed in 96-well plates. […] human chronic myelogenous leukaemia K562 cells were seeded in a 96-well plate at a concentration of 10^4 cells/well and incubated at 37 °C overnight in a 5% CO2 enriched atmosphere. Cells in exponential growth phase were incubated at 37 °C for 72 h with each tested compound at concentrations ranging from 3.12 to 400 μg/mL. After that, the medium was removed and cells were treated with MTT solution (100 μL, 0.2 mg/mL in PBS) at 37 °C for 2 h. MTT solution was then discarded and DMSO (500 μL) was added to dissolve insoluble formazan crystals. Optical density was measured at 540 nm. Each extract concentration was tested in triplicate. Doxorubicin was used as positive control.
For orientation: Formazan colour is commonly taken as a measure of viable cells.

For test [6], the system named is Pseudomonas aeruginosa ATCC 27853. Description: Antibacterial activity, broth microdilution. Type of test: cell-based. Particulars: ATCC27853, positive control.
Experimental: as §1, §2
In test [7] the test system is Staphylococcus aureus ATCC 25923. The test is described as follows: Antibacterial activity, broth microdilution. The class given is cell-based. Particulars: ATCC25923, positive control.
Experimental: as §2
Test [8] relates to Escherichia coli ATCC 25922. The test is described as follows: Antibacterial activity, broth microdilution. The class given is cell-based. Particulars: ATCC25922, positive control.
Experimental: as §1, §2
For test [9], the system named is Enterococcus faecalis ATCC 29212. Description: Antibacterial activity, broth microdilution. Type of test: cell-based. Particulars: ATCC29212, positive control.
Experimental: as §2
The nature of test [10]: Antioxidant activity by DPPH assay. The method, then:
Diluted methanol solutions of the samples at different concentrations (1 mL each) were mixed with 1 mL of a freshly prepared (80 µg/mL) methanol solution of DPPH. The resulted solution was incubated at 37 °C for 30 min after what the absorbance of the solution was measured at 517 nm. Lower absorbance of the reaction mixture indicates higher free radical scavenging activity. Tests were carried out in triplicate. Decrease in absorption induced by the tested sample was compared to that of the positive control ascorbic acid. The capability to scavenge the DPPH^.radical was calculated using the following equation: Inhibition ratio (DPPH^. scavenging effect) (%) = [(Acontrol − Asample) / Acontrol] × 100 (1)
The IC50 was calculated using the linear relation between the compound concentration and the probability of the percentage of DPPH inhibition.
On the technique in general: DPPH is a stable violet radical that fades when it is reduced.

A short description of test [11]: Antioxidant activity by ABTS assay. Here is the method: ABTS was dissolved in water to a 7 mM concentration and the ABTS radical cation was produced by adding potassium persulfate to a final concentration of 2.45 mM [31]. The radical generation was completed in the dark at room temperature for 12 h. This solution was then diluted with methanol to adjust its absorbance at 734 nm to 0.706 ± 0.009. To determine the scavenging activity, 1 mL of diluted ABTS^+. solution was added to 1 mL of methanolic solutions of extract at different concentrations and the absorbance at 734 nm was measured 10 min after the initial mixing, using methanol as the blank. The percentage of inhibition was calculated by the equation: [(Acontrol − Asample)/Acontrol] × 100 (2) where Acontrol is the absorbance of the control reaction containing all reagents except the tested sample, and Asample is the absorbance of the test compound. Tests were carried out in triplicate. Ascorbic acid was used as the positive control. The IC50 was calculated using linear relation between the compound concentration and probability of the percentage of ABTS inhibition.

For `C[C@@H]1[C@H](O)[C@@H](C)/C=C/C=C/C=C/C=C/C=C/C=C/C=C/[C@H](O[C@@H]2O[C@H](C)[C@@H](O)[C@H](N)[C@@H]2O)C[C@@H]2O[C@](O)(C[C@@H](O)C[C@@H](O)[C@H](O)CC[C@@H](O)C[C@@H](O)CC(=O)O[C@H]1C)C[C@H](O)[C@H]2C(=O)O` [Amphotericin B], the minimal fungicidal concentration (MFC) in test [1], in test [2], in test [3] and in test [4] was 0.5 µg/mL (≈ 0.541 µM) throughout.
Regarding `COc1cccc2c1C(=O)c1c(O)c3c(c(O)c1C2=O)C[C@@](O)(C(=O)CO)C[C@@H]3O[C@H]1C[C@H](N)[C@H](O)[C@H](C)O1` [Doxorubicin], the half-maximal inhibitory concentration (IC50) (as a rule, the concentration that inhibits the measured activity by half) in test [5] came out at 0.1 µg/mL (≈ 0.184 µM).
Consider `CNC(C)C1CCC(N)C(OC2C(N)CC(N)C(OC3OCC(C)(O)C(NC)C3O)C2O)O1` (stereo not shown) [Gentamecin, gentamicin], for which the minimum bactericidal concentration (MBC) (as a rule, the smallest concentration meeting the test's criterion for killing) in test [6] is 0.5 µg/mL (≈ 1.05 µM); in [7], 0.15 µg/mL (≈ 0.314 µM); in [8] it was 0.01 µg/mL (≈ 0.0209 µM); in test [9], 0.01 µg/mL (≈ 0.0209 µM).
`Cc1ccc(C(C)C)c(O)c1` [Thymol]: the MIC (usually the lowest concentration that inhibits growth of the organism) is 1 µg/mL (≈ 6.66 µM) in [6]; 0.13 µg/mL (≈ 0.865 µM) in test [1]; 0.2 µg/mL (≈ 1.33 µM) in [7]; 0.32 µg/mL (≈ 2.13 µM) in test [2]; 0.25 µg/mL (≈ 1.66 µM) in test [8]; 0.16 µg/mL (≈ 1.07 µM) in test [3]. Moreover, the MIC in [4] came out at 0.32 µg/mL (≈ 2.13 µM); in test [9], 0.6 µg/mL (≈ 3.99 µM).
`O=C1O[C@H]([C@@H](O)CO)C(O)=C1O` [Vitamin C, L-ascorbic acid]: in test [10], the “DPPH Assay IC50” value was 4.4 ± 0.1 µg/mL. Also, in [11], the “ABTS+ Assay IC50” value was 4.1 ± 0.1 µg/mL.
